# From patent US12162859B2, “Crystalline and amorphous forms of a compound for the targeted degradation of estrogen receptor” (Arvinas Operations, Inc., priority 2020, dated 2024)
# Key:
# Format in all cases: physicochemical
# [1] = Relative stability of the four identified polymorphic forms
# Description: A summary of the relevant characteristics of Form I is found below in Table 10: […]
# [2] = 1 week stability of Form I under storage conditions
# [3] = Thermodynamic solubility of Form I in solvents and aqueous pH media; conditions: for solubility thermodynamic: thermodynamic from solid
# [4] = Hygroscopicity (DVS water uptake at 90% RH)
structure (smiles),measurement,setting,value
"O=C1CC[C@H](N2Cc3cc(N4CCN(CC5CCN(c6ccc([C@@H]7c8ccc(O)cc8CC[C@@H]7c7ccccc7)cc6)CC5)CC4)ccc3C2=O)C(=O)N1 [Form I, (S)-3-(5-(4-((1-(4-((1R,2S)-6-hydroxy-2-phenyl-1,2,3,4-tetrahydronaphthalen-1-yl)phenyl)piperidin-4-yl)methyl)piperazin-1-yl)-1-oxoisoindolin-2-yl)piperidine-2,6-dione]",Stability relative to the other identified forms,[1],most stable
same,"1 Week Stability, solid form",[2]; 40° C./75% RH,Form I
same,"1 Week Stability, solid form",[2]; 80° C.,Form I
same,"1 Week Stability, solid form",[2]; Ambient,Form I
same,Solid form recovered in thermodynamic solubility test,[3]; 1-Butanol,Form I
same,solubility thermodynamic,"[3]; 1-butanol, organic solvent or mixture",500 µg/mL
same,Solid form recovered in thermodynamic solubility test,[3]; Acetone,Form I (PO)
same,solubility thermodynamic,"[3]; DCM:methanol (90:10 v/v), organic solvent or mixture",> 67000 µg/mL
same,Solid form recovered in thermodynamic solubility test,[3]; Dichloromethane,Form I (PO)
same,Solid form recovered in thermodynamic solubility test,[3]; Ethanol,Form I
same,Solid form recovered in thermodynamic solubility test,[3]; Methanol,Form I
same,solubility thermodynamic,"[3]; N,N′-dimethylacetamide, organic solvent or mixture",> 100000 µg/mL
same,solubility thermodynamic,"[3]; THF, organic solvent or mixture",> 67000 µg/mL
same,solubility thermodynamic,"[3]; acetone, organic solvent or mixture",4000 µg/mL
same,solubility thermodynamic,"[3]; aqueous pH medium, pH 1, simulated gastric fluid",100 µg/mL
same,solubility thermodynamic,"[3]; aqueous pH medium, pH 4, aqueous buffer",< 50 µg/mL
same,solubility thermodynamic,"[3]; aqueous pH medium, pH 5, aqueous buffer",< 50 µg/mL
same,solubility thermodynamic,"[3]; aqueous pH medium, pH 6, aqueous buffer",< 50 µg/mL
same,solubility thermodynamic,"[3]; dichloromethane, organic solvent or mixture",14800 µg/mL
same,solubility thermodynamic,"[3]; ethanol, organic solvent or mixture",800 µg/mL
same,solubility thermodynamic,"[3]; methanol, organic solvent or mixture",1100 µg/mL
same,Solid form recovered in thermodynamic solubility test,[3]; pH 1,Form I
same,Solid form recovered in thermodynamic solubility test,[3]; pH 4,Amorphous
same,Solid form recovered in thermodynamic solubility test,[3]; pH 5,Form I
same,Solid form recovered in thermodynamic solubility test,[3]; pH 6,Form I
same,Hygroscopicity (water uptake at 90% RH),[4]; 90% RH,1.7%
same,hygroscopicity,[4]; at 90% RH,1.7 wt. %
same,Post-DVS XRPD,[4]; solid form by XRPD after DVS,Form I
